From patent US20170035713A1, “SYNERGISTIC COMBINATIONS OF CAROTENOIDS AND POLYPHENOLS” (LYCORED LTD., priority 2009, published 2017)

What was measured:
Format in all cases: cell-based, mouse
[1] = system: LPS stimulated NO production by macrophages; assay: NO production assay in LPS-stimulated peritoneal macrophages, curcumin, lutein and Lycomato (second Example 1)
Description: Macrophage isolation and cell culture—Peritoneal macrophages were collected from the peritoneal cavity of 6-8 week old male ICR mice (Harlan, Israel) that had been given an intraperitoneal injection of 1.5 ml of thioglycollate broth (4%) 4 days before harvest. Peritoneal macrophages were washed three times with PBS and, if needed, a hypotonic lysis of erythrocytes was performed, yielding 90-95% purity. The macrophages were identified by FACS analysis using FITC-conjugated rat anti-mouse F4/80 (MCA497F) (Serotec, Oxford, England) by flow microfluorimetry on FACS (Becton Dickinson, Mountain View, Calif.). For each sample, 10,000 light scatter-gated viable cells were analyzed. Peritoneal macrophages were cultured in RPMI 1640 medium containing 10% FCS, 2 mM L-glutamine; 100 U/ml penicillin; 100 μg/ml streptomycin (Beit-Haemek, Israel) in 96-well plates (2×10^5 cells/well) at 37° C. in 5% CO2 atmosphere. LycoMato, Lutein and curcumin-PC (Indena product) and, for comparison, LycoMato, Lutein and pure curcumin and their various combinations were added to the cells. One hour later, LPS (0.2 μg/ml) was added and the macrophages were cultured at 37° C. in a 5% CO2 atmosphere for 24 h.
Curcumin PC (Indena) was dissolved in Diethylene glycol monoethyl ether from Sigma (as recommended by Indena). The volume of solvent was 0.12% for 1 µM curcumin PC. The concentration of curcumin PC was calculated according to its content in the formula (Curcumin PC). Lycomato and Lutein or curcumin were dissolved in DMSO (the volume of DMSO in the test solution was 0.01% for either 1 […] Lycomato, Lutein or pure curcumin. The mixture was vortexed and shaken at 37° C. for 10 min and sonicated in a sonicator bath for 15 sec×3 times. From this stock solution the desired concentrations were made by addition of appropriate volumes to warm culture medium. The concentration of lycopene in solution was calculated to 1 ml of the highest final concentration 0.5 ml isopropanol+1.5 ml hexane/dichloromethane (1:5 V/V) containing 0.025% BHT. The solution is vortexed and the phases are separated by centrifugation 3000 rpm for 10 min. A spectrum was done to detect the level of nutrients.
To the controls appropriate volumes of DMSO and/or Diethylene glycol monoethyl ether were added and the percent inhibition of each test tube was calculated in relation to its control tube.
NO production assay—NO levels in supernatants of cell cultures were determined by assaying nitrite levels using Griess reagent and sodium nitrite as a standard.

[2] = system: macrophage superoxide production; assay: Superoxide production by macrophages (ferricytochrome c reduction); conditions: optimal low concentrations
Description: Peritoneal macrophages were isolated and treated as described hereinabove in Example 1.
Superoxide production: The production of superoxide anion (O2^−) by macrophages was measured as the superoxide dismutase-inhibitable reduction of ferricytochrome c by the microtiter plate technique, as known in the prior art. An aliquot of radiolabelled macrophages (5× 10^5 cells/well) used for the adherence assay was taken and suspended in 100 μl incubation medium containing ferricytochrome c ([…]). Stimulation was induced with PMA (50 ng/ml). The reduction of ferricytochrome c was followed by a change of absorbance at 550 nm at 2 min intervals for 30 min on a Thermomax Microplate Reader (Molecular Devices, Melno Park, Calif., USA). The maximal rates of superoxide generation were determined and expressed as nanomoles O2^−/10^6 cells/10 min using the extinction coefficient E550=21 mM^−1 cm^−1.

[3] = system: NO production by peritoneal macrophages; assay: NO production assay in LPS-stimulated peritoneal macrophages (Example 1)
Description: (§1) Macrophage isolation and cell culture—Peritoneal macrophages were collected from the peritoneal cavity of 6-8 week old male ICR mice (Harlan, Israel) that had been given an intraperitoneal injection of 1.5 ml of thioglycollate broth (4%) 4 days before harvest. Peritoneal macrophages were washed three times with PBS and, if needed, a hypotonic lysis of erythrocytes was performed, yielding 90-95% purity. The macrophages were identified by FACS analysis using FITC-conjugated rat anti-mouse F4/80 (MCA497F) (Serotec, Oxford, England) by flow microfluorimetry on FACS (Becton Dickinson, Mountain View, Calif.). For each sample, 10,000 light scatter-gated viable cells were analyzed. Peritoneal macrophages and murine macrophage cell line RAW264.7 were cultured RPMI 1640 medium containing 10% FCS, 2 mM L-glutamine; 100 U/ml penicillin; 100 μg/ml streptomycin (Beit-Haemek, Israel) in 96-well plates (1×10^6 cells/well) at 37° C. in 5% CO2 atmosphere. Cells were stimulated with LPS (0.1-1 μg/ml) in the presence or absence of carnosic acid and/or one or more of the following carotenoids: carnosic acid, purified lycopene, lycopene-rich tomato extract (Lyc-O-Mato®; LycoRed Ltd., Be'er Sheva, Israel), lutein and beta-Carotene.
(§2) The carnosic acid and the various carotenoids were dissolved in DMSO (to a final concentration of 5 mM). The mixture was vortexed and incubated in a water bath at 37° C. (with shaking) for 10 min and then sonicated in a sonicator bath three times for 15 seconds each time. Using this stock solution the desired concentrations were prepared by the addition of appropriate volumes thereof to warm culture medium.
(§3) Appropriate volumes of DMSO (0.1-0.2%) were added to the controls and the percent inhibition in each test tube was calculated in relation to its control.
NO production assay—NO levels in supernatants of cell cultures were determined by assaying nitrite levels using Griess reagent and sodium nitrite as a standard as described in Green, L. C., Wagner, D. A., Glogowski, J., Skipper, P. L., Wishnok, J. S., and Tannenbaum, S. R. (1982) Anal Biochem. 126: 131-138.

[4] = system: TNF-alpha production by peritoneal macrophages; assay: TNF-alpha production assay (ELISA) in LPS-stimulated peritoneal macrophages; conditions: FIG. 3; same set of experiments and concentrations as FIG. 2
Description: as §1, with “Cells were stimulated with LPS (0.1-1 μg/ml) in the presence or absence of carnosic acid and/or one or more of the following carotenoids: carnosic acid, purified lycopene, lycopene-rich tomato extract (Lyc-O-Mato®; LycoRed Ltd., Be'er Sheva, Israel), lutein and beta-Carotene.” left out
as §3
TNF-alpha production assay—Concentrations of TNF-alpha were quantified using ELISA kits (Biolegend Inc., San Diego, Calif.).

[5] = system: PGE2 production by peritoneal macrophages; assay: PGE2 measurement (radio-immunoassay) in LPS-stimulated peritoneal macrophages; conditions: for inhibition of PGE2 production (in words): FIG. 5a/5b lower panel, lutein 0.5 μM, beta-Carotene 1 μM, carnosic acid 1 μM; for inhibition of PGE2 production: used alone, FIG. 4 / FIG. 5a upper panel, same set of experiments as FIG. 2
Description: as §1, §2, §3
PGE2 measurement—Supernatants of resting and stimulated cells were collected and immediately stored at −70° C. PGE2 levels were determined by utilizing a dextran coated charcoal radio-immunoassay protocol as previously described (Dror N, Tveria L, Meniv I, Ben-Shmuel S, Filipovich T, Fleisher-Berkovich S., Regul Pept. 2008 150: 21-5).
Briefly, 100 μl sample or PGE2 standard (Sigma Israel, Rehovot, Israel) were incubated in the presence of 500 μl anti-PGE2 anti-serum (Sigma Israel, Rehovot, Israel) for 30 min. [^3H]PGE2 (Amersham Biosciences, NJ, USA) was added next for 24 h at 4° C. 24 h later, 200 […]μl cold dextran coated charcoal suspension was added to each tube and incubated for 10 min on ice. The tubes were centrifuged at 3500 RPM for 15 min at 4° C. 500 μl of supernatants containing [^3H]PGE2-anti-PGE2 complexes were counted (Packard Spectrometry 1900CA) and the amount of PGE2 was calculated.

[6] = Mus musculus, Peritoneal macrophage, read-out: inhibition of NO production

## COc1cc(/C=C/C(=O)CC(=O)/C=C/c2ccc(O)c(OC)c2)ccc1O [pure curcumin, curcumin]
[1]; 2 μM Curcumin-PC or pure Curcumin, 1 μM Lycomato, 1 μM Lutein, alone or combined, LPS 0.2 μg/ml, 24 h
  inhibition of LPS stimulated NO production: 2±0.4%
[1]; Mus musculus, Macrophage, dose response 0-20 μM, at 15 μM
  inhibition at 15 µM: 75%
[1]; alone, 1 μM and 2 μM
  inhibition of NO production (in words): non-significant inhibitory effect

## CC(C)=CCC/C(C)=C/C=C/C(C)=C/C=C/C(C)=C/C=C/C=C(C)/C=C/C=C(C)/C=C/C=C(\C)CCC=C(C)C [lycopene]
[2]; FIG. 9
  inhibition of superoxide production (in words): lack of detectable inhibition
[3]; alone, range of 1-5 μM
  inhibition of NO production (in words): low level inhibition
[4]
  inhibition of TNF-alpha production (in words): lack of detectable inhibition

## CC1=C(/C=C/C(C)=C/C=C/C(C)=C/C=C/C=C(C)/C=C/C=C(C)/C=C/C2=C(C)CCCC2(C)C)C(C)(C)CCC1 [beta-carotene]
[2]; Mus musculus, Macrophage, alone, beta-carotene 2 μM
  inhibition at 2 µM: 10%
[5]
  inhibition of PGE2 production (in words): neither lutein (0.5 μM) nor beta-Carotene (1 μM) alone affected PGE2 production
  inhibition of PGE2 production: around 20%

## CC(C)c1cc2c(c(O)c1O)[C@@]1(C(=O)O)CCCC(C)(C)[C@@H]1CC2 [carnosic acid]
[3]; [6]
  inhibition at 1 µM: 12%
  inhibition at 2 µM: 18%
[5]; Mus musculus, Peritoneal macrophage, read-out: inhibition of PGE2 production
  inhibition at 1 µM: 10%
[5]
  inhibition of PGE2 production: around 20%

## CC1=C[C@H](O)CC(C)(C)[C@H]1/C=C/C(C)=C/C=C/C(C)=C/C=C/C=C(C)/C=C/C=C(C)/C=C/C1=C(C)C[C@@H](O)CC1(C)C [lutein]
[1]; Mus musculus, Macrophage, 2 μM Curcumin-PC or pure Curcumin, 1 μM Lycomato, 1 μM Lutein, alone or combined, LPS 0.2 μg/ml, 24 h
  inhibition at 1 µM: 5 ± 0.9%
[5]
  inhibition of PGE2 production (in words): neither lutein (0.5 μM) nor beta-Carotene (1 μM) alone affected PGE2 production
